Measurements as given in US12564553B2, “Suspension containing heterocyclidene acetamide derivative” (SENJU PHARMACEUTICAL CO., LTD., priority 2021, dated 2026).

Assay: Stability of Compound (1) in nonionic surfactant solution (content retention rate, liquid chromatography)
Type: physicochemical
Settings: aqueous solution in glass ampoule stored at 25° C. for 1 month (1M)
Protocol: As used herein, the term “stability” refers to the degree to which the content of (E)-2-(7-trifluoromethylchroman-4-ylidene)-N-(7-hydroxy-5,6,7,8-tetrahydronaphthalen-1-yl)acetamide, or a pharmaceutically acceptable salt or solvate thereof, dissolved and/or suspended in an aqueous suspension is maintained without being altered by decomposition or the like after storage for a certain period of time. In addition, as used herein, the “stability” is evaluated by the content maintenance ratio, which is the ratio of the content of (E)-2-(7-trifluoromethylchroman-4-ylidene)-N-(7-hydroxy-5,6,7,8-tetrahydronaphthalen-1-yl)acetamide, or a pharmaceutically acceptable salt or solvate thereof, in the aqueous suspension agent stored for a certain period after preparation to the content of (E)-2-(7-trifluoromethylchroman-4-ylidene)-N-(7-hydroxy-5,6,7,8-tetrahydronaphthalen-1-yl)acetamide, or a pharmaceutically acceptable salt or solvate thereof, in the aqueous suspension agent immediately after preparation. Typically, this evaluation is determined by evaluating the content retention rate of (E)-2-(7-trifluoromethylchroman-4-ylidene)-N-(7-hydroxy-5,6,7,8-tetrahydronaphthalen-1-yl)acetamide, or a pharmaceutically acceptable salt or solvate thereof, dissolved in the aqueous suspension agent. […]

content retention rate (to display ratio %): 100%
SMILES: O=C(/C=C1\CCOc2cc(C(F)(F)F)ccc21)Nc1cccc2c1C[C@H](O)CC2 [Compound (1), (E)-2-(7-trifluoromethylchroman-4-ylidene)-N-((7R)-7-hydroxy-5,6,7,8-tetrahydronaphthalen-1-yl)acetamide]
